Assay results as given in PubChem BioAssay (NCI).
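Compound exposure: 48 hours, 5 concentrations, 96-well plates. TGI denotes the concentration required for complete inhibition of growth.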

What was measured:
Assay in all cases: NCI anticancer screen, dose series, 48 h
[1] = system: HOP-62 NSCLC
[2] = system: OVCAR-4 ovarian
[3] = system: MALME-3M melanoma
[4] = system: M19-MEL melanoma
[5] = system: ACHN renal
[6] = system: UACC-62 melanoma
[7] = system: CCRF-CEM leukemia
[8] = system: K-562 leukemia
[9] = system: NCI-H460 lung
[10] = system: OVCAR-8 ovarian
[11] = system: COLO 205 colon
[12] = system: RXF 393 renal
[13] = system: SNB-75 CNS
[14] = system: HCC-2998 colon
[15] = system: SF-268 CNS
[16] = system: NCI-H226 lung
[17] = system: DMS 114 small cell lung
[18] = system: XF 498 CNS
[19] = system: A498 renal
[20] = system: NCI-H522 lung
[21] = system: HT29 colon
[22] = system: IGROV1 ovarian
[23] = system: LXFL 529 NSCLC
[24] = system: SK-OV-3 ovarian
[25] = system: EKVX NSCLC
[26] = system: U251 CNS
[27] = system: DMS 273 small cell lung
[28] = system: OVCAR-3 ovarian
[29] = system: SNB-19 CNS
[30] = system: MOLT-4 leukemia
[31] = system: KM20L2 colon
[32] = system: SF-539 CNS
[33] = system: SF-295 CNS
[34] = system: KM12 colon
[35] = system: TK-10 renal
[36] = system: DLD-1 colon
[37] = system: NCI-H23 lung
[38] = system: SK-MEL-2 melanoma
[39] = system: A549 NSCLC
[40] = system: UACC-257 melanoma
[41] = system: CAKI-1 renal
[42] = system: 786-0 renal
[43] = system: M14 melanoma
[44] = system: HCT-116 colon
[45] = system: SN12C renal
[46] = system: UO-31 renal
[47] = system: RPMI-8226 leukemia
[48] = system: SW-620 colon
[49] = system: SK-MEL-28 melanoma
[50] = system: SK-MEL-5 melanoma
[51] = system: LOX IMVI melanoma
[52] = system: SNB-78 CNS
[53] = system: HL-60(TB) leukemia
[54] = system: SR leukemia
[55] = system: OVCAR-5 ovarian
[56] = system: HCT-15 colon
[57] = system: HOP-92 NSCLC

In the case of `CC(C)NC(C)C(C)c1ccccc1` (configuration not stated), the TGI [1] is reported as over 100 µM, the TGI [2] is reported as over 100 µM and the TGI [3] is reported as over 100 µM. The TGI [4] was over 100 µM, the TGI [5] was over 100 µM and the TGI [6] was over 100 µM. It also gave a TGI [7] of over 100 µM, a TGI [8] of over 100 µM and a TGI [9] of over 100 µM. The TGI [10] was over 100 µM, the TGI [11] was over 100 µM and the TGI [12] was over 100 µM. For the same compound, the TGI [13] was over 100 µM, the TGI [14] was over 100 µM and the TGI [15] was over 100 µM. It also gave a TGI [16] of over 100 µM, a TGI [17] of over 100 µM and a TGI [18] of over 100 µM. For the same compound, the TGI [19] was over 100 µM, the TGI [20] was over 100 µM and the TGI [21] was over 100 µM. The TGI [22] was over 100 µM, the TGI [23] was over 100 µM and the TGI [24] was over 100 µM. It also gave a TGI [25] of over 100 µM, a TGI [26] of over 100 µM and a TGI [27] of over 100 µM. The TGI [28] was over 100 µM, the TGI [29] was over 100 µM and the TGI [30] was over 100 µM. For the same compound, the TGI [31] was over 100 µM, the TGI [32] was over 100 µM and the TGI [33] was over 100 µM. For the same compound, the TGI [34] was over 100 µM, the TGI [35] was over 100 µM and the TGI [36] was over 100 µM. For the same compound, the TGI [37] was over 100 µM, the TGI [38] was over 100 µM and the TGI [39] was over 100 µM. It also gave a TGI [40] of over 100 µM, a TGI [41] of over 100 µM and a TGI [42] of over 100 µM. The TGI [43] was over 100 µM, the TGI [44] was over 100 µM and the TGI [45] was over 100 µM. It also gave a TGI [46] of over 100 µM, a TGI [47] of over 100 µM and a TGI [48] of over 100 µM. It also gave a TGI [49] of over 100 µM, a TGI [50] of over 100 µM and a TGI [51] of over 100 µM.

`CC(=O)OCC(OC(C)=O)C(OC(C)=O)C(OC(C)=O)C(=O)CNn1c(-c2ccc(C)cc2)nc2ccccc2c1=O` (configuration not stated) was tested, and the TGI [1] was over 100 µM, the TGI [2] was over 100 µM and the TGI [3] was over 100 µM. The TGI [4] was over 100 µM, the TGI [5] was over 100 µM and the TGI [6] was over 100 µM. The TGI [7] was over 100 µM, the TGI [8] was over 100 µM and the TGI [9] was over 100 µM. It also gave a TGI [10] of over 100 µM, a TGI [11] of over 100 µM and a TGI [12] of over 100 µM. It also gave a TGI [13] of over 100 µM, a TGI [15] of over 100 µM and a TGI [52] of over 100 µM. For the same compound, the TGI [17] was over 100 µM, the TGI [53] was over 100 µM and the TGI [18] was over 100 µM. The TGI [19] was over 100 µM, the TGI [20] was over 100 µM and the TGI [21] was over 100 µM. The TGI [23] was over 100 µM, the TGI [24] was over 100 µM and the TGI [25] was over 100 µM. The TGI [26] was over 100 µM, the TGI [27] was over 100 µM and the TGI [28] was over 100 µM. It also gave a TGI [29] of over 100 µM, a TGI [30] of over 100 µM and a TGI [54] of over 100 µM. It also gave a TGI [55] of over 100 µM, a TGI [31] of over 100 µM and a TGI [32] of over 100 µM. For the same compound, the TGI [33] was over 100 µM, the TGI [34] was over 100 µM and the TGI [37] was over 100 µM. For the same compound, the TGI [38] was over 100 µM, the TGI [39] was over 100 µM and the TGI [40] was over 100 µM. It also gave a TGI [41] of over 100 µM, a TGI [42] of over 100 µM and a TGI [43] of over 100 µM. It also gave a TGI [56] of over 100 µM, a TGI [44] of over 100 µM and a TGI [45] of over 100 µM. For the same compound, the TGI [46] was over 100 µM, the TGI [47] was over 100 µM and the TGI [48] was over 100 µM. For the same compound, the TGI [49] was over 100 µM, the TGI [50] was over 100 µM and the TGI [51] was over 100 µM.

`CCNc1cnc2c(n1)c(=O)n(C)c(=O)n2C` showed a TGI [1] of over 100 µM, a TGI [2] of over 100 µM and a TGI [3] of over 100 µM. For the same compound, the TGI [4] was over 100 µM, the TGI [5] was over 100 µM and the TGI [6] was over 100 µM. The TGI [7] was over 100 µM, the TGI [8] was over 100 µM and the TGI [9] was over 100 µM. It also gave a TGI [10] of over 100 µM, a TGI [11] of over 100 µM and a TGI [12] of over 100 µM. It also gave a TGI [13] of over 100 µM, a TGI [14] of over 100 µM and a TGI [15] of over 100 µM. The TGI [57] was over 100 µM, the TGI [17] was over 100 µM and the TGI [53] was over 100 µM. For the same compound, the TGI [18] was over 100 µM, the TGI [19] was over 100 µM and the TGI [20] was over 100 µM. It also gave a TGI [21] of over 100 µM, a TGI [22] of over 100 µM and a TGI [23] of over 100 µM. It also gave a TGI [24] of over 100 µM, a TGI [25] of over 100 µM and a TGI [26] of over 100 µM. For the same compound, the TGI [27] was over 100 µM, the TGI [28] was over 100 µM and the TGI [29] was over 100 µM. For the same compound, the TGI [30] was over 100 µM, the TGI [55] was over 100 µM and the TGI [31] was over 100 µM. It also gave a TGI [32] of over 100 µM, a TGI [33] of over 100 µM and a TGI [34] of over 100 µM. For the same compound, the TGI [35] was over 100 µM, the TGI [36] was over 100 µM and the TGI [37] was over 100 µM. For the same compound, the TGI [38] was over 100 µM, the TGI [39] was over 100 µM and the TGI [40] was over 100 µM. For the same compound, the TGI [41] was over 100 µM, the TGI [43] was over 100 µM and the TGI [56] was over 100 µM. For the same compound, the TGI [44] was over 100 µM, the TGI [45] was over 100 µM and the TGI [46] was over 100 µM. For the same compound, the TGI [47] was over 100 µM, the TGI [48] was over 100 µM and the TGI [49] was over 100 µM. For the same compound, the TGI [50] was over 100 µM.

With `COc1cc(C2Oc3cc(-c4oc5cc(O)cc(O)c5c(=O)c4O)ccc3OC2CO)ccc1O` (configuration not stated) the TGI [1] was over 80.4 µM, the TGI [2] was over 76.7 µM and the TGI [3] was 67 µM. For the same compound, the TGI [4] was over 100 µM, the TGI [5] was 29.1 µM and the TGI [6] was over 100 µM. It also gave a TGI [7] of over 100 µM, a TGI [8] of over 100 µM and a TGI [9] of 12.7 µM. The TGI [10] was over 100 µM, the TGI [11] was 75.3 µM and the TGI [12] was 6.02 µM. For the same compound, the TGI [13] was over 60.7 µM, the TGI [14] was over 78.9 µM and the TGI [15] was over 57.2 µM. It also gave a TGI [52] of over 100 µM, a TGI [57] of 52 µM and a TGI [16] of 82.1 µM. For the same compound, the TGI [17] was over 100 µM, the TGI [53] was over 64.5 µM and the TGI [18] was over 62.4 µM. The TGI [19] was over 49.3 µM, the TGI [20] was over 30 µM and the TGI [21] was 69.7 µM. It also gave a TGI [22] of over 100 µM, a TGI [23] of over 100 µM and a TGI [24] of over 95.5 µM. It also gave a TGI [26] of over 100 µM, a TGI [27] of 31.2 µM and a TGI [28] of 54.8 µM. The TGI [29] was 81.7 µM, the TGI [30] was over 38.9 µM and the TGI [54] was over 54.1 µM. It also gave a TGI [32] of 34.3 µM, a TGI [33] of 64.8 µM and a TGI [34] of over 100 µM. For the same compound, the TGI [35] was 58.3 µM, the TGI [36] was over 100 µM and the TGI [37] was 34.9 µM. It also gave a TGI [38] of 32.6 µM, a TGI [39] of over 100 µM and a TGI [40] of over 100 µM. For the same compound, the TGI [41] was over 73.2 µM, the TGI [42] was 72.8 µM and the TGI [43] was over 70.5 µM. For the same compound, the TGI [56] was over 100 µM, the TGI [44] was over 37.1 µM and the TGI [45] was over 95.2 µM. The TGI [46] was 6.81 µM, the TGI [47] was over 56.4 µM and the TGI [48] was over 100 µM. For the same compound, the TGI [49] was 62.3 µM and the TGI [50] was 96.5 µM.
